Source: ChEMBL document CHEMBL5506074, “Discovery and Optimization of Tetrahydroisoquinoline Derivatives To Enhance Lysosome Biogenesis as Preclinical Candidates for the Treatment of Alzheimer's Disease” (J Med Chem, 2024)
Active and inactive are the calls of the source. The rule behind the calls is not given here.

What was measured:
[1] = Induction of TFEB nuclear translocation in human HeLa cells expressing EGFP at 10 uM measured at 3 hrs by fluorescence microscopic analysis; assay type: functional
[2] = Induction of TFEB nuclear translocation in human HeLa cells expressing EGFP at 30 uM measured at 3 hrs by fluorescence microscopic analysis; assay type: functional
HeLa [3] = assay: Cytotoxicity against human HeLa cells at 30 uM; assay type: toxicity, cell-based
[4] = Induction of TFEB nuclear translocation in human HeLa cells expressing EGFP at 10 uM measured at 6 hrs by fluorescence microscopic analysis; assay type: functional
[5] = Induction of TFEB nuclear translocation in human HeLa cells expressing EGFP at 30 uM measured at 6 hrs by fluorescence microscopic analysis; assay type: functional
[6] = Ratio of drug concentration in ICR mouse brain to plasma at 5 mg/kg, iv measured upto 24 hrs by LC-MS/MS analysis; assay type: ADME, organism-based; details: brain and plasma, read-out: BPR
[7] = AUC (0 to t) in ICR mouse at 20 mg/kg, po measured upto 24 hrs by LC-MS/MS analysis; assay type: ADME, organism-based; details: ICR, in vivo
[8] = Ratio of drug concentration in ICR mouse brain to plasma at 10 mg/kg, ip measured upto 24 hrs by LC-MS/MS analysis; assay type: ADME, organism-based; details: brain and plasma, read-out: BPR
HeLa [9] = assay: Upregulation of GLA mRNA expression in human HeLa cells at 10 uM incubated for 24 hrs by qRT-PCR analysis; assay type: functional, cell-based
HeLa [10] = assay: Upregulation of Atg16L1 mRNA expression in human HeLa cells at 10 uM incubated for 24 hrs by qRT-PCR analysis; assay type: functional, cell-based
HeLa [11] = assay: Upregulation of HEXA mRNA expression in human HeLa cells at 10 uM incubated for 24 hrs by qRT-PCR analysis; assay type: functional, cell-based
[12] = AUC (0 to t) in ICR mouse at 5 mg/kg, iv measured upto 24 hrs by LC-MS/MS analysis; assay type: ADME, organism-based; details: ICR, in vivo
[13] = Oral bioavailability in ICR mouse at 20 mg/kg measured upto 24 hrs by LC-MS/MS analysis; assay type: ADME, organism-based; details: ICR, in vivo
HeLa [14] = assay: Upregulation of LC3B mRNA expression in human HeLa cells at 10 uM incubated for 24 hrs by qRT-PCR analysis; assay type: functional, cell-based
HeLa [15] = assay: Upregulation of CTSF mRNA expression in TFEB knockout human HeLa cells at 10 uM incubated for 24 hrs by qRT-PCR analysis; assay type: functional, cell-based
HeLa [16] = assay: Upregulation of […] mRNA expression in TFEB knockout human HeLa cells at 10 uM incubated for 24 hrs by qRT-PCR analysis; assay type: functional, cell-based
HeLa [17] = assay: Upregulation of ATG2A mRNA expression in human HeLa cells at 10 uM incubated for 24 hrs by qRT-PCR analysis; assay type: functional, cell-based
[18] = Tmax in ICR mouse at 20 mg/kg, po measured upto 24 hrs by LC-MS/MS analysis; assay type: ADME, organism-based; details: in vivo
HeLa [19] = assay: Upregulation of GLA mRNA expression in TFEB knockout human HeLa cells at 10 uM incubated for 24 hrs by qRT-PCR analysis; assay type: functional, cell-based
HeLa [20] = assay: Upregulation of p62 mRNA expression in human HeLa cells at 10 uM incubated for 24 hrs by qRT-PCR analysis; assay type: functional, cell-based
HeLa [21] = assay: Upregulation of CTSF mRNA expression in human HeLa cells at 10 uM incubated for 24 hrs by qRT-PCR analysis; assay type: functional, cell-based
HeLa [22] = assay: Upregulation of […] mRNA expression in human HeLa cells at 10 uM incubated for 24 hrs by qRT-PCR analysis; assay type: functional, cell-based
HeLa [23] = assay: Upregulation of CTSD mRNA expression in human HeLa cells at 10 uM incubated for 24 hrs by qRT-PCR analysis; assay type: functional, cell-based
[24] = Cmax in ICR mouse at 10 mg/kg, ip measured upto 24 hrs by LC-MS/MS analysis; assay type: ADME, organism-based; details: in vivo
[25] = AUC (0 to t) in ICR mouse at 10 mg/kg, ip measured upto 24 hrs by LC-MS/MS analysis; assay type: ADME, organism-based; details: in vivo
[26] = Clearance in ICR mouse at 5 mg/kg, iv measured upto 24 hrs by LC-MS/MS analysis; assay type: ADME, organism-based; details: in vivo
HeLa [27] = assay: Upregulation of LAMP1 mRNA expression in human HeLa cells at 10 uM incubated for 24 hrs by qRT-PCR analysis; assay type: functional, cell-based
[28] = Volume of distribution at steady state in ICR mouse measured upto 24 hrs by LC-MS/MS analysis; assay type: ADME; details: in vivo, read-out: Vdss
HeLa [29] = assay: Upregulation of UVRAG mRNA expression in TFEB knockout human HeLa cells at 10 uM incubated for 24 hrs by qRT-PCR analysis; assay type: functional, cell-based
HeLa [30] = assay: Upregulation of p62 mRNA expression in TFEB knockout human HeLa cells at 10 uM incubated for 24 hrs by qRT-PCR analysis; assay type: functional, cell-based
HeLa [31] = assay: Upregulation of OPTN mRNA expression in TFEB knockout human HeLa cells at 10 uM incubated for 24 hrs by qRT-PCR analysis; assay type: functional, cell-based
[32] = Half life in ICR mouse at 10 mg/kg, ip measured upto 24 hrs by LC-MS/MS analysis; assay type: ADME, organism-based; details: in vivo
HeLa [33] = assay: Upregulation of LAMP1 mRNA expression in TFEB knockout human HeLa cells at 10 uM incubated for 24 hrs by qRT-PCR analysis; assay type: functional, cell-based
HeLa [34] = assay: Induction of lysosome biogenesis in human HeLa cells assessed as increase in number of acidified lysosomes at 10 uM incubated for 24 hrs by LysiTracker red staining based flow cytometry analysis; assay type: functional, cell-based
[35] = Tmax in ICR mouse at 10 mg/kg, ip measured upto 24 hrs by LC-MS/MS analysis; assay type: ADME, organism-based; details: in vivo
[36] = Bioavailability in ICR mouse at 5 mg/kg, ip measured upto 24 hrs by LC-MS/MS analysis; assay type: ADME, organism-based; details: in vivo
HeLa [37] = assay: Upregulation of ATG2A mRNA expression in TFEB knockout human HeLa cells at 10 uM incubated for 24 hrs by qRT-PCR analysis; assay type: functional, cell-based
HeLa [38] = assay: Upregulation of OPTN mRNA expression in human HeLa cells at 10 uM incubated for 24 hrs by qRT-PCR analysis; assay type: functional, cell-based
HeLa [39] = assay: Upregulation of HEXA mRNA expression in TFEB knockout human HeLa cells at 10 uM incubated for 24 hrs by qRT-PCR analysis; assay type: functional, cell-based
HeLa [40] = assay: Upregulation of CTSD mRNA expression in TFEB knockout human HeLa cells at 10 uM incubated for 24 hrs by qRT-PCR analysis; assay type: functional, cell-based
HeLa [41] = assay: Upregulation of Atg16L1 mRNA expression in TFEB knockout human HeLa cells at 10 uM incubated for 24 hrs by qRT-PCR analysis; assay type: functional, cell-based
HeLa [42] = assay: Upregulation of UVRAG mRNA expression in human HeLa cells at 10 uM incubated for 24 hrs by qRT-PCR analysis; assay type: functional, cell-based
[43] = Cmax in ICR mouse at 20 mg/kg, po measured upto 24 hrs by LC-MS/MS analysis; assay type: ADME, organism-based; details: in vivo
HeLa [44] = assay: Upregulation of LC3B mRNA expression in TFEB knockout human HeLa cells at 10 uM incubated for 24 hrs by qRT-PCR analysis; assay type: functional, cell-based
[45] = Half life in ICR mouse at 20 mg/kg, po measured upto 24 hrs by LC-MS/MS analysis; assay type: ADME, organism-based; details: in vivo

COc1cc2c(cc1O)C(CCc1c[nH]c3ccccc13)N(CC1CCOCC1)CC2 (stereo not drawn)
Activity [1]: 22%
Activity [2]: 75%
Activity (HeLa [3]): Toxic
Activity [4]: 37%
Activity [5]: 77%

c1cnc2[nH]cc(CCC3NCCc4cc5c(cc43)OCO5)c2c1 (stereo not drawn)
Activity [1]: 30%
Activity [2]: 70%
Activity (HeLa [3]): Toxic
Activity [4]: 30%
Activity [5]: 70%

COc1cc2c(cc1OC)C(CCc1c[nH]c3ccccc13)N(CC1CCOCC1)CC2 (stereo not drawn)
Kp at 24 h [6]: 2.2
AUC(0-t) at 24 h [7]: 16.3 ng·h/mL
Activity [1]: 27%
Kp at 24 h [8]: 1.9
Activity (HeLa [9]): Active
Activity [2]: 85%
Activity (HeLa [10]): Active
Activity (HeLa [11]): Active
AUC(0-t) at 24 h [12]: 604 ng·h/mL
bioavailability [13]: 0.67%
Activity (HeLa [14]): Active
Activity (HeLa [15]): Active
Activity (HeLa [16]): Active
Activity (HeLa [17]): Active
Tmax [18]: 25.2 min
Activity (HeLa [19]): Active
Activity (HeLa [20]): Active
Activity (HeLa [21]): Active
Activity (HeLa [22]): Active
Activity (HeLa [23]): Active
Cmax [24]: 620 ng/mL
AUC(0-t) at 24 h [25]: 609 ng·h/mL
clearance [26]: 140 mL/min/kg
Activity (HeLa [27]): Active
Vd [28]: 8.66 L/kg
Activity (HeLa [29]): Active
Activity (HeLa [30]): Active
Activity (HeLa [31]): Active
half-life [32]: 58.2 min
Activity [4]: 47%
Activity (HeLa [33]): Active
Activity (HeLa [34]): Active
Tmax [35]: 10.8 min
bioavailability [36]: 50.4%
Activity (HeLa [37]): Active
Activity (HeLa [38]): Active
Activity (HeLa [39]): Active
Activity (HeLa [40]): Active
Activity (HeLa [41]): Active
Activity (HeLa [42]): Active
Cmax [43]: 9.14 ng/mL
Activity (HeLa [44]): Active
half-life [45]: 216 min
Activity [5]: 85%

c1ccc2c(c1)ccn2CCC1c2cc3c(cc2CCN1CC1CCOCC1)OCO3 (stereo not drawn)
Activity [1]: 5%
Activity [2]: 8%
Activity [4]: 5%
Activity [5]: 5%
